In brackets after ≈: the same amount, converted by molar mass. Like-named read-outs stand apart in the source and are kept apart here.
Legend:
[1] = test system: Strep. faecalis MGH-2; test: Antibacterial activity, MIC; format: cell-based; settings: for MIC: Enterococcus faecalis
[2] = test system: Strep. pneumoniae SV-1; test: Antibacterial activity, MIC; format: cell-based; settings: for MIC: Streptococcus pneumoniae
[3] = test system: Strep. pyogenes C-203; test: Antibacterial activity, MIC; format: cell-based
[4] = test system: Klebsiella pneumoniae MGH-2; test: Acute mouse protection test; format: in vivo; settings: single dose given at time of challenge; for ED50: Klebsiella pneumoniae
[5] = test system: Staph. aureus H 228; test: Antibacterial activity, MIC; format: cell-based; settings: for MIC: Staphylococcus aureus
[6] = test system: Klebs. pneumoniae MGH-2; test: Antibacterial activity, MIC; format: cell-based; settings: for MIC: Klebsiella pneumoniae
[7] = test system: E. coli Vogel; test: Antibacterial activity, MIC; format: cell-based; settings: for MIC: Escherichia coli
[8] = test system: Entero cloacae MA 2646; test: Antibacterial activity, MIC; format: cell-based
[9] = test system: Staph. aureus UC-76; test: Antibacterial activity, MIC; format: cell-based
[10] = test system: Escherichia coli Vogel; test: Acute mouse protection test; format: in vivo; settings: single dose given at time of challenge; for ED50: Escherichia coli
[11] = test system: Proteus retgeri M 1771; test: Antibacterial activity, MIC; format: cell-based
[12] = test system: Pseudo. aeruginosa UI-18; test: Antibacterial activity, MIC; format: cell-based
[13] = Lyophilization of the salts; format: physicochemical
From the text: The unpredictable characteristics of the salts prepared from Compounds A and B are clear from consideration of the results reported in Table 1. These characteristics were considered in view of the necessary requirements (a-f) outlined above for preparing a useful parenteral dosage form. […] From the data in Table 1, the lactate salts appear to be useful; however, lactic acid cannot be consistently obtained in a satisfactory grade in presently available commercial forms and is therefore not useful. The choline and sodium salts were ruled out based on the pH of their respective solutions.

[14] = Two-way crossover oral trial, drug blood levels by disk agar diffusion microbiological assay; format: in vivo; settings: Beagle dogs, single 25 mg/kg (parent compound equivalent) oral dose in hard gelatine capsules; compound B compared with compound D as the glutamate
Description: Drug blood levels were determined by a disk agar diffusion microbiological assay.

[15] = test system: Staphylococcus aureus UC-76; test: Acute mouse protection test; format: in vivo; settings: single dose given at time of challenge, compound B series; for Single sc Dose PD50 (mg/kg) ± 95% Confidence Limits Staphylococcus aureus UC-76: subcutaneous
[16] = subcutaneous, compound B series
[17] = MGH2, based on content of compound A
[18] = MGH2, based on content of compound B
[19] = subcutaneous, compound A series

| Structure (SMILES) | MIC µg/ml Strep. faecalis MGH-2 ([1]; based on content of compound B) [µg/mL] | MIC µg/ml Strep. pneumoniae SV-1 ([2]; based on content of compound B) [µg/mL] | MIC µg/ml Strep. pyogenes C-203 ([3]; based on content of compound B) [µg/mL] | Single sc Dose PD50 (mg/kg) ± 95% Confidence Limits Klebsiella pneumoniae MGH-2 [4, 16] [mg/kg] | MIC µg/ml Staph. aureus H 228 ([5]; based on content of compound B) [µg/mL] | MIC µg/ml Klebs. pneumoniae MGH-2 ([6]; based on content of compound B) [µg/mL] | MIC µg/ml E. coli Vogel ([7]; based on content of compound B) [µg/mL] | MIC µg/ml Entero cloacae MA 2646 ([8]; based on content of compound B) [µg/mL] | MIC µg/ml Staph. aureus UC-76 ([9]; based on content of compound B) [µg/mL] | Single po Dose PD50 (mg/kg) ± 95% Confidence Limits Escherichia coli Vogel ([10]; compound B series) [mg/kg] | Single sc Dose PD50 (mg/kg) ± 95% Confidence Limits Escherichia coli Vogel [10, 16] [mg/kg] | MIC µg/ml Proteus retgeri M 1771 ([11]; based on content of compound B) [µg/mL] | MIC µg/ml Pseudo. aeruginosa UI-18 ([12]; based on content of compound B) [µg/mL] | Single sc Dose PD50 (mg/kg) ± 95% Confidence Limits Staphylococcus aureus UC-76 [15] [mg/kg] | further results |
| --- | --- | --- | --- | --- | --- | --- | --- | --- | --- | --- | --- | --- | --- | --- | --- |
| CCn1cc(C(=O)O)c(=O)c2cc(F)c(N3CCNCC3)nc21 [B Gluconate] | 3.1 | 3.1 | 3.1 | 5.2 ± 1.5 | 1.6 | 0.2 | 0.1 | 0.4 | 0.4 | 2.9 ± 0.7 | 1.1 ± 0.4 | 0.2 | 0.8 | – | – |
| CCn1cc(C(=O)O)c(=O)c2cc(F)c(N3CCNCC3)cc21 [A acetate] | – | – | – | – | – | – | – | – | – | – | – | – | – | – | lyophilization [13]: cannot be successfully lyophilized |
| CCn1cc(C(=O)O)c(=O)c2cc(F)c(N3CCNCC3)cc21 [Compound A, 1-ethyl-6-fluoro-1,4-dihydro-4-oxo-7-(1-piperazinyl)-3-quinolinecarboxylic acid, reference compound] | – | – | – | – | – | – | – | – | – | – | – | – | – | – | MIC [1, 17]: 1.6 µg/mL (≈ 5.01 µM); MIC ([2]; SV1, based on content of compound A): 0.8 µg/mL (≈ 2.51 µM); MIC ([3]; Streptococcus pyogenes, C203, based on content of compound A): 0.8 µg/mL (≈ 2.51 µM); ED50 ([4]; MGH2, po, oral, compound A series, read-out: Single po Dose PD50 (mg/kg) ± 95% Confidence Limits Klebsiella pneumoniae MGH-2): 15 ± 3 mg/kg; ED50 ([4]; MGH2, sc, subcutaneous, compound A series, read-out: Single sc Dose PD50 (mg/kg) ± 95% Confidence Limits Klebsiella pneumoniae MGH-2): 1.3 ± 0.3 mg/kg; MIC ([5]; H228, based on content of compound A): 1.6 µg/mL (≈ 5.01 µM); MIC [6, 17]: 0.2 µg/mL (≈ 0.626 µM); MIC ([7]; based on content of compound A): 0.1 µg/mL (≈ 0.313 µM); MIC ([8]; based on content of compound A): < 0.1 µg/mL; MIC ([9]; Staphylococcus aureus, UC76, based on content of compound A): 0.1 µg/mL (≈ 0.313 µM); ED50 ([10]; po, compound A series, read-out: Single po Dose PD50 (mg/kg) ± 95% Confidence Limits Escherichia coli Vogel): 3.3 ± 0.5 mg/kg; ED50 ([10]; sc, subcutaneous, compound A series, read-out: Single sc Dose PD50 (mg/kg) ± 95% Confidence Limits Escherichia coli Vogel): 0.5 ± 0.1 mg/kg; MIC ([11]; based on content of compound A): < 0.1 µg/mL; MIC µg/ml Pseudo. aeruginosa UI-18 ([12]; based on content of compound A): 0.4 µg/mL (≈ 1.25 µM) |
| CCn1cc(C(=O)O)c(=O)c2cc(F)c(N3CCNCC3)nc21 [Compound B, 1-ethyl-6-fluoro-1,4-dihydro-4-oxo-7-(1-piperazinyl)-1,8-naphthyridine-3-carboxylic acid, reference compound] | – | – | 3.1 (≈ 9.68 µM) | 2.6 ± 0.6 | – | – | – | – | 0.2 (≈ 0.624 µM) | – | – | – | 0.8 (≈ 2.5 µM) | 7.4 ± 2.2 | MIC [1, 18]: 1.6 µg/mL (≈ 4.99 µM); MIC ([2]; SV1, based on content of compound B): 3.1 µg/mL (≈ 9.68 µM); drug half-life [14]: no significant difference; peak blood level [14]: no significant difference; MIC ([5]; H228, based on content of compound B): 3.1 µg/mL (≈ 9.68 µM); MIC [6, 18]: 0.1 µg/mL (≈ 0.312 µM); MIC ([7]; based on content of compound B): 0.2 µg/mL (≈ 0.624 µM); MIC ([8]; based on content of compound B): 0.2 µg/mL (≈ 0.624 µM); ED50 ([10]; po, compound B series, read-out: Single po Dose PD50 (mg/kg) ± 95% Confidence Limits Escherichia coli Vogel): 3.1 ± 0.7 mg/kg; ED50 ([10]; sc, subcutaneous, compound B series, read-out: Single sc Dose PD50 (mg/kg) ± 95% Confidence Limits Escherichia coli Vogel): 1.4 ± 0.4 mg/kg; MIC ([11]; based on content of compound B): 0.1 µg/mL (≈ 0.312 µM); ED50 ([15]; Staphylococcus aureus, UC76, po, oral, read-out: Single po Dose PD50 (mg/kg) ± 95% Confidence Limits Staphylococcus aureus UC-76): 14 ± 7 mg/kg |
| CCn1cc(C(=O)O)c(=O)c2cc(F)c(N3CCNCC3)nc21 [B acetate] | – | – | – | – | – | – | – | – | – | – | – | – | – | – | lyophilization [13]: cannot be successfully lyophilized |
| CCn1cc(C(=O)O)c(=O)c2cc(F)c(N3CCNCC3)nc21 [B Aspartate] | 3.1 (≈ 9.68 µM) | 3.1 (≈ 9.68 µM) | 6.3 (≈ 19.7 µM) | 1.6 ± 0.6 | 3.1 (≈ 9.68 µM) | 0.1 (≈ 0.312 µM) | <0.1 | 0.2 (≈ 0.624 µM) | 0.1 (≈ 0.312 µM) | 2.9 ± 1.0 | 1.3 ± 0.4 | <0.1 | 0.4 (≈ 1.25 µM) | 4.3 ± 1.4 | Single po Dose PD50 (mg/kg) ± 95% Confidence Limits Staphylococcus aureus UC-76 ([15]; oral): 13 ± 3.0 mg/kg |
| CCn1cc(C(=O)O)c(=O)c2cc(F)c(N3CCNCC3)cc21 [A Gluconate] | – | – | – | – | – | – | – | – | – | – | – | – | – | – | MIC µg/ml Strep. faecalis MGH-2 ([1]; based on content of compound A): 0.8 µg/mL; MIC µg/ml Strep. pneumoniae SV-1 ([2]; based on content of compound A): 1.6 µg/mL; MIC µg/ml Strep. pyogenes C-203 ([3]; based on content of compound A): 0.8 µg/mL; Single po Dose PD50 (mg/kg) ± 95% Confidence Limits Klebsiella pneumoniae MGH-2 ([4]; oral, compound A series): 13 ± 6 mg/kg; Single sc Dose PD50 (mg/kg) ± 95% Confidence Limits Klebsiella pneumoniae MGH-2 [4, 19]: 1.4 ± 0.3 mg/kg; MIC µg/ml Staph. aureus H 228 ([5]; based on content of compound A): 1.6 µg/mL; MIC µg/ml Klebs. pneumoniae MGH-2 ([6]; based on content of compound A): 0.2 µg/mL; MIC µg/ml E. coli Vogel ([7]; based on content of compound A): <0.1 µg/mL; MIC µg/ml Entero cloacae MA 2646 ([8]; based on content of compound A): 0.2 µg/mL; MIC µg/ml Staph. aureus UC-76 ([9]; based on content of compound A): 0.2 µg/mL; Single po Dose PD50 (mg/kg) ± 95% Confidence Limits Escherichia coli Vogel ([10]; compound A series): 3.9 ± 0.9 mg/kg; Single sc Dose PD50 (mg/kg) ± 95% Confidence Limits Escherichia coli Vogel [10, 19]: 0.5 ± 0.1 mg/kg; MIC µg/ml Proteus retgeri M 1771 ([11]; based on content of compound A): <0.1 µg/mL; MIC µg/ml Pseudo. aeruginosa UI-18 ([12]; based on content of compound A): 0.2 µg/mL |
| CCn1cc(C(=O)O)c(=O)c2cc(F)c(N3CCNCC3)nc21 [B Glutamate] | 3.1 (≈ 9.68 µM) | 3.1 (≈ 9.68 µM) | 6.3 (≈ 19.7 µM) | 1.9 ± 0.9 | 1.6 (≈ 4.99 µM) | 0.2 (≈ 0.624 µM) | <0.1 | 0.2 (≈ 0.624 µM) | <0.1 | 2.9 ± 1.0 | 1.6 ± 0.6 | 0.1 (≈ 0.312 µM) | 0.2 (≈ 0.624 µM) | 2.8 ± 1.0 | Single po Dose PD50 (mg/kg) ± 95% Confidence Limits Staphylococcus aureus UC-76 ([15]; oral): 12.0 ± 3.0 mg/kg |
| CCn1cc(C(=O)O)c(=O)c2cc(F)c(N3CCNCC3)nc21 [Compound B L-Glutamic, 1-Ethyl-6-fluoro-1,4-dihydro-4-oxo-7-(1-piperazinyl)-1,8-naphthyridine-3-carboxylic acid L-glutamate] | – | – | – | – | – | – | – | – | – | – | – | – | – | – | drug half-life [14]: no significant difference; peak blood level [14]: no significant difference |

From patent publication EP0067666A1, “Salts of antimicrobial naphthyridine and quinoline compounds and their production” (priority 1981, dated 1982)
